Data set [1] is described as follows: pH-dependent degradation. The class given is physicochemical. Conditions: pH-Werte < 3; nach bereits 2 Stunden; read-out: Abbau. The text has this:
Darüber hinaus weist Prasugrel auch einen stark pH-abhängigen Abbau auf. Bei pH-Werten von < 3 ist ein Abbau von mehr als 1 % nach bereits 2 Stunden zu beobachten. Dies schränkt die möglichen Hilfsstoffe bei der Herstellung pharmazeutischer Formulierungen ein.

Data set [2] can be described thus: Solubility in water. The class given is physicochemical. Conditions: in Wasser, freie Base, read-out: Löslichkeit. The method, then: Prasugrel wird als Plättchenaggregationshemmer oral verabreicht. Problematisch hierbei ist, dass es sich bei Prasugrel um einen schwer löslichen Wirkstoff handelt. Die freie Base des Wirkstoffs weist eine Löslichkeit von 57 µg/ml in Wasser auf, aber auch die Salze zeigen nur eine begrenzte Löslichkeit.

SMILES strings stand for the structures. Converted amounts (≈) assume the structure as drawn.

For the molecule `CC(=O)Oc1cc2c(s1)CCN(C(C(=O)C1CC1)c1ccccc1F)C2` (centres unmarked) [Prasugrel, 2-Acetoxy-5-(a-cyclopropylcarbonyl-2-fluorbenzyl)-4,5,6,7-tetrahydrothieno[3,2-c]pyridin], the degraded at 2 h in data set [1] is more than 1%. The solubility in data set [2] is 57 µg/mL (≈ 153 µM).

Values taken from patent EP2377520A1, “Pharmaceutical compound of prasugrel” (Ratiopharm GmbH, priority 2010, dated 2011).
